Reference: publication PMC3705371, “Helicusin E, Isochromophilone X and Isochromophilone XI: New Chloroazaphilones Produced by the Fungus Bartalinia robillardoides Strain LF550” (Marine Drugs, 2013)
Read-outs that look alike come from different tables or passages of the source.

Experiments:
[1] = test system: Septoria tritici; test: Antifungal assay, Septoria tritici (optical density); type: cell-based; conditions: for IC50: Zymoseptoria tritici, read-out: IC50 Septoria tritici
Description: Septoria tritici. The substances were dissolved in DMSO to a concentration of 10 mM and transferred into a 96-well microtiter plate. For screening purposes, the compounds were tested in a final concentration of 100 μM. The fungal strain S. tritici was cultured on MYG medium (1.0% malt extract, 0.4% yeast extract, 0.4% glucose·H2O, pH = 5.6) for four days, subsequently the culture was diluted to an optical density (600 nm) of 0.03 and added to the microtiter plate. After incubation for 48 h at 20 °C, the optical density was measured. The resulting values were compared to a positive (0.53 μM boscalid) and a negative control (no compound) on the same plate.

[2] = test system: Bacillus subtilis; test: Antibacterial assay, Bacillus subtilis; type: cell-based; conditions: for IC50: Bacillus subtilis, antibacterial
Description: (§1) Bacillus subtilis, Staphylococcus lentus, Xanthomonas campestris and Candida albicans. The antimicrobial assays were performed as reported by Schulz et al..

[3] = test system: Staphylococcus lentus; test: Antibacterial assay, Staphylococcus lentus; type: cell-based; conditions: for IC50: Mammaliicoccus lentus, antibacterial
Description: as §1

[4] = test system: human hepatocellular carcinoma cell line (HepG2); test: Cytotoxicity assay (CellTiterBlue), HepG2; type: cell-based; conditions: HepG2 cells
Description: (§2) Cytotoxicity assays. The sensitivity of the cell lines KIF5 and HepG2 to the isolated compounds was evaluated by monitoring the metabolic activity using the CellTiterBlue Cell Viability Assay (Promega, Mannheim, Germany). The human fibroblast cell line (KIF5) was provided by the Institute for Experimental Tumor Research, Section Molecular Oncology, Kiel, Germany, and the human hepatocellular carcinoma cell line (HepG2) was obtained from the German Collection of Microorganism and Cell Cultures (DSMZ, Braunschweig, Germany). The cytotoxicity assays were performed as described by Schulz et al., apart from the cell concentration, which were 5000 KIF5 cells and 10,000 HepG2 cells per vial.

[5] = target: Acetylcholinesterase (Homo sapiens, UniProt P22303); test: biochemical; type: biochemical; conditions: for IC50: enzyme assay
Description: (§3) Enzyme inhibition assays PDE4 and AChE assays were performed as described by Schulz et al. and Kim et al., respectively.

[6] = test system: Phosphodiesterase 4; test: Enzyme inhibition assay PDE4; type: biochemical; conditions: for IC50: enzyme assay
Description: as §3

[7] = test system: Trichophyton rubrum; test: Antifungal assay, Trichophyton rubrum (optical density); type: cell-based; conditions: for IC50: Trichophyton rubrum, antifungal, 72 h at 28 °C
Description: Trichophyton rubrum. The substances were dissolved in DMSO to a concentration of 10 mM and transferred into a 96-well microtiter plate. For screening purposes, the compounds were tested in a final concentration of 100 μM. For inoculation 5 × 10^4 spores mL^−1 from the fungal strain T. rubrum diluted in Sabouraud medium (1.0% peptone, 2.0% glucose·H2O, pH = 5.6) were added to the microtiter plate. After incubation for 72 h at 28 °C the optical density was measured.

[8] = test system: Candida albicans; test: Antifungal assay, Candida albicans; type: cell-based; conditions: for IC50: antifungal
Description: as §1

[9] = test system: human fibroblast cell line (KIF5); test: Cytotoxicity assay (CellTiterBlue), KIF5; type: cell-based; conditions: KIF5 cells
Description: as §2

[10] = test system: MRSA; conditions: cited from earlier work

Sequence of Acetylcholinesterase (P22303 32-614, species assumed): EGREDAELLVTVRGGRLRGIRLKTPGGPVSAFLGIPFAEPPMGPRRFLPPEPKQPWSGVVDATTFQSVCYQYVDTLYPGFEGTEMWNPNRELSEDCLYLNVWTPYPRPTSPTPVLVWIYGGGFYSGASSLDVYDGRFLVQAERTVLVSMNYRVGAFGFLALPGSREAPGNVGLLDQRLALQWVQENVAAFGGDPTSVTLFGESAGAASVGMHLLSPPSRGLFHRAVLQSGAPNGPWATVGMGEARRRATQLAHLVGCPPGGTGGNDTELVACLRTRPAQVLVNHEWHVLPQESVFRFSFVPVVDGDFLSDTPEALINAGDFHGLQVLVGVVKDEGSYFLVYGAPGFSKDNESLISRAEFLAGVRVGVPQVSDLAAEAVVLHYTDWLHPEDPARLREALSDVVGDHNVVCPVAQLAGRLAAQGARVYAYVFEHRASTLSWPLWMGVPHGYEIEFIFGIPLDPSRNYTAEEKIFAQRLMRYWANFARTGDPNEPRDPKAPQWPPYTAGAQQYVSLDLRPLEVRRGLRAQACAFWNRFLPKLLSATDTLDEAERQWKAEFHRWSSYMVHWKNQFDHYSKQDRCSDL

SMILES	IC50 [2]	IC50 [3]	antibacterial activity against Bacillus subtilis (in words) [2]	inhibition of Septoria tritici (in words) [1]	antibacterial activity against Staphylococcus lentus (in words) [3]	inhibition of Trichophyton rubrum (in words) [7]	inhibition of Candida albicans (in words) [8]	IC50 [5]	IC50 ([1]; antifungal, 48 h at 20 °C)	IC50 [6]	IC50 [7]	IC50 ([8]; Candida albicans)	other results
O=C(Nc1ccccc1-c1ccc(Cl)cc1)c1cccnc1Cl [boscalid, reference compound]													IC50 ([1]; 48 h): 0.53 µM
O=C(N[C@H](CO)[C@H](O)c1ccc([N+](=O)[O-])cc1)C(Cl)Cl [chloram-phenicol, reference compound]	1.45 µM	2.13 µM											
CC=CC(=O)OC1CC(C)OC(=O)CCC(O)CC1=O (stereo not drawn) [compound 6, bartanolide]			inactive	inactive	inactive	inactive	inactive						cytotoxic activity (in words) [4]: inactive; inhibition of acetylcholinesterase (in words) [5]: inactive; inhibition of phosphodiesterase 4 (in words) [6]: inactive; cytotoxic activity (in words) [9]: inactive
CCC(C)C=C(C)C=CC1=CC2=C(Cl)C(=O)C(C)(O)C(=O)C2=CO1 (stereo not drawn) [deacetylsclerotiorin (2), 5-Chloro-3-[3,5-dimethyl-1,3-heptadien-1-yl]-7-hydroxy-7-methyl-6H-2-benzopyran-6,8(7H)-dione]	38.8 µM	43.6 µM	Weak	Significant inhibition	Weak	Significant inhibition	Significant inhibition	> 50 µM	7.45 µM	2.79 µM	2.83 µM	24 µM	IC50 ([6]; listed as 2): 2.8 µM
CCC(C)/C=C(C)/C=C/C1=CC2=C(Cl)C(=O)[C@@](C)(OC(=O)/C=C(\C)CC(=O)O)C(=O)C2=CO1 (stereo partly drawn) [helicusin A (1), helicusin A]	> 100 µM	> 100 µM		Significant inhibition		Significant inhibition	Significant inhibition	2.1 µM	7.6 µM	> 10 µM	7.23 µM	24.4 µM	
CCC(C)C(O)C(C)(O)/C=C/C1=CC2=C(Cl)C(=O)[C@@](C)(OC(=O)/C=C(\C)CC(=O)O)C(=O)C2=CO1 (stereo partly drawn) [helicusin E (3), helicusin E]	> 100 µM	> 100 µM						> 50 µM	> 100 µM	> 10 µM	> 100 µM	> 200 µM	
CCC(C)/C=C(C)/C=C/C1=CC2=C(Cl)C(=O)C(C)(OC(C)=O)C(=O)C2=CN1CCCC(=O)O (stereo not drawn) [isochromophilone IX]													MIC [10]: approximately 100 μM
CCC(C)/C=C(C)/C=C/C1=CC2=C(Cl)C(=O)[C@@](C)(OC(=O)/C=C(\C)CC(=O)O)C(=O)C2=CN1CCO (stereo partly drawn) [isochromophilone X (4), isochromophilone X]	> 100 µM	> 100 µM							> 100 µM	11.7 µM	> 80 µM	> 100 µM	
CCC(C)/C=C(C)/C=C/C1=CC2=C(Cl)C(=O)C(C)(OC(=O)/C=C(\C)CC(=O)O)C(=O)C2(O)CO1 (stereo not drawn) [isochromophilone XI (5), isochromophilone XI]	55.6 µM	78.4 µM	Weak		Weak	weak activity		> 50 µM	> 100 µM	8.3 µM	41.5 µM	> 100 µM	
C[C@@H]1[C@H](O)[C@@H](C)/C=C/C=C/CC/C=C/C=C/C=C/C=C/C(O[C@H]2O[C@H](C)[C@@H](O)[C@H](N)[C@@H]2O)CC2O[C@](O)(CC(O)C(O)CCC(O)CC(O)CC(O)CC(=O)O[C@H]1C)CC(O)C2C(=O)O (stereo partly drawn) [nystatin, reference compound]													IC50 [8]: 5.8 µM
